# Target: T1, human CCR6 (Homo sapiens, UniProt P51684)
# T1 construct: expressed in transfected cells; host or cells: HEK-293
# T1 sequence (P51684 1-374): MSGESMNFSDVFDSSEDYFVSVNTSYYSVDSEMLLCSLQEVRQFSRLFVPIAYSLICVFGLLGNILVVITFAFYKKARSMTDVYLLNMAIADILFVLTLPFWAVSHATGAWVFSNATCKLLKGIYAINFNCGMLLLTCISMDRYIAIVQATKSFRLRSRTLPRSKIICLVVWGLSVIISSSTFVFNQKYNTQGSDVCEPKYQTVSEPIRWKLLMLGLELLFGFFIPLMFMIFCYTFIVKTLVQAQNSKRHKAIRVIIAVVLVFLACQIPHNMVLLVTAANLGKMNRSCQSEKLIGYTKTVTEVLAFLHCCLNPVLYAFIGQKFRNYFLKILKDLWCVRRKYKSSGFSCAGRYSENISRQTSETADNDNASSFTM
# Experiment: FLIPR assay: inhibition of CCL20-induced calcium signal in HEK-293 cells expressing human CCR6
# Assay type: cell-based
# Conditions: engineered HEK-293 cells expressing human CCR6; agonist CCL20 10 nM; 30 min preincubation; Fluo-8-AM; mean values if determined several times
# Description: FLIPR assay: The bioactivity of compounds is tested in a fluorometric imaging plate reader (FLIPR: Molecular Devices) using engineered HEK-293 cells expressing the human CCR6 (GenBank: AY242126). Frozen cells are plated on Poly-L-Lysine precoated 384-well plates 2 days prior to bioassay in DMEM medium supplemented with 10% FCS and 1% Penicillin-Streptomycin. At the day of bioassay, cell supernatant is discarded and cells are dye loaded for 30 minutes at room temperature in the dark with Fluo-8-AM (Focus Biomolecules) in Hanks Balanced Salt Solution (Gibco), buffered with 20 mM Hepes at pH 6.75 and supplemented with 0.05% BSA. This buffer, but lacking the dye, is also used for washing and compound dilution steps (assay buffer). Cells are washed free of excess dye with a wash-station (Biotek), leaving 40 microliter of assay buffer at the end. Cells were incubated for 15 minutes at room temperature in the dark, before adding compounds. Stock solutions of test compounds are made up at a concentration of 10 mM in DMSO, and serially diluted first in DMSO and then transferred in assay buffer to concentrations required for inhibition dose response curves. After a 45 minute incubation period in assay buffer at room temperature, 10 microliters of each compound dilution are transferred from a compound plate to the plate containing the recombinant cells in the FLIPR instrument according to the manufacturer's instructions. After cells and compounds were preincubated for 30 minutes at room temperature in the dark, 10 microliter agonist CCL20 (Peprotech) at a final concentration of 10 nM is added, again using the FLIPR instrument. Changes in fluorescence are monitored before and after addition of the test compounds and agonist. Emission peak values above base level after CCL20 addition are exported after base line subtraction. The calculated IC50 values may fluctuate depending on the daily assay performance. Fluctuations of this kind are known to those skilled in the art. In the case where IC50 values have been determined several times for the same compound, mean values are given.
row,SMILES,IC50
1,"CNC(C)(C)c1nc(-c2cncc([C@@](O)(c3ccc(C(C)C)cc3)C3(C)CN(C)C3)c2)nn1C1CC1 [Example 11, (R)-{5-[1-Cyclopropyl-5-(1-methyl-1-methylamino-ethyl)-1H-[1,2,4]triazol-3-yl]-pyridin-3-yl}-(1,3-dimethyl-azetidin-3-yl)-(4-isopropyl-phenyl)-methanol]",519 nM
2,"Cc1ncc([C@@](O)(c2ccc(C(C)C)cc2)C2(C)CN(C)C2)cc1-c1nc([C@H]2CC[C@H](O)CC2)n(C2CC2)n1 [Example 40, 4-(2-Cyclopropyl-5-{5-[(R)-(1,3-dimethyl-azetidin-3-yl)-hydroxy-(4-isopropyl-phenyl)-methyl]-2-methyl-pyridin-3-yl}-2H-[1,2,4]triazol-3-yl)-trans-cyclohexanol]",202 nM
3,"CC(C)c1ccc([C@](O)(c2cncc(-c3nc(C4(C)CCNC(=O)C4)n(C(C)C)n3)c2)C2(C)CN(C)C2)cc1 (stereo partly drawn) [Example 45, 4-(5-{5-[(R)-(1,3-Dimethyl-azetidin-3-yl)-hydroxy-(4-isopropyl-phenyl)-methyl]-pyridin-3-yl}-2-isopropyl-2H-[1,2,4]triazol-3-yl)-4-methyl-piperidin-2-one]",193 nM
4,"CN1CC(C)([C@](O)(c2ccc(Br)cc2)c2cncc(-c3nc(C4CCOCC4)n(C4CC4)n3)c2)C1 [Example 1, (R)-(4-Bromo-phenyl)-{5-[1-cyclopropyl-5-(tetrahydro-pyran-4-yl)-1H-[1,2,4]triazol-3-yl]-pyridin-3-yl}-(1,3-dimethyl-azetidin-3-yl)-methanol]",1050 nM

# Stronger by IC50, values ahead:
row,IC50,SMILES
1,78.1 nM,"CC(C)c1ccc([C@](O)(c2cncc(-c3nc(C4CCOCC4)n(C4CC4)n3)c2)C2(C)CN(C)C2)cc1F [Example 38, (R)-{5-[1-Cyclopropyl-5-(tetrahydro-pyran-4-yl)-1H-[1,2,4]triazol-3-yl]-pyridin-3-yl}-(1,3-dimethyl-azetidin-3-yl)-(3-fluoro-4-isopropyl-phenyl)-methanol]"
2,163 nM,"CN1CC(C)([C@](O)(c2ccc(C3CC3)cc2)c2cncc(-c3nc(C4CCOCC4)n(C4CC4)n3)c2)C1 [Example 25, (R)-(4-Cyclopropyl-phenyl)-{5-[1-cyclopropyl-5-(tetrahydro-pyran-4-yl)-1H-[1,2,4]triazol-3-yl]-pyridin-3-yl}-(1,3-dimethyl-azetidin-3-yl)-methanol]"
3,98.5 nM,"CC(C)c1ccc([C@](O)(c2cncc(-c3nc([C@H]4CC[C@H](O)CC4)n(C4CC4)n3)c2)C2(C)CN(C)C2)cc1 [Example 8, trans-4-(2-Cyclopropyl-5-{5-[(R)-(1,3-dimethyl-azetidin-3-yl)-hydroxy-(4-isopropyl-phenyl)-methyl]-pyridin-3-yl}-2H-[1,2,4]triazol-3-yl)-cyclohexanol]"
4,44.4 nM,"CCCc1ccc([C@](O)(c2cncc(-c3nc(C4CCOCC4)n(C4CC4)n3)c2)C2(C)CN(C)C2)cc1 [Example 7, (R)-{5-[1-Cyclopropyl-5-(tetrahydro-pyran-4-yl)-1H-[1,2,4]triazol-3-yl]-pyridin-3-yl}-(1,3-dimethyl-azetidin-3-yl)-(4-propyl-phenyl)-methanol]"
5,104 nM,"CC(C)c1ccc([C@](O)(c2cncc(-c3nc(C(C)(C)O)n(C4CC4)n3)c2)C2(C)CNC2)cc1 [Example 37, 2-(2-Cyclopropyl-5-{5-[(R)-hydroxy-(4-isopropyl-phenyl)-(3-methyl-azetidin-3-yl)-methyl]-pyridin-3-yl}-2H-[1,2,4]triazol-3-yl)-propan-2-ol]"
6,118 nM,"CC(C)c1ccc([C@](O)(c2cncc(-c3nc(C4CCOCC4)n(C4CC4)n3)c2)C2(C)CN(C)C2)cc1 [Example 14, (R)-{5-[1-Cyclopropyl-5-(tetrahydro-pyran-4-yl)-1H-[1,2,4]triazol-3-yl]-pyridin-3-yl}-(1,3-dimethyl-azetidin-3-yl)-(4-isopropyl-phenyl)-methanol]"

# Source: patent US20250042881A1, “CCR6 RECEPTOR MODULATORS” (Idorsia Pharmaceuticals Ltd, priority 2021, published 2025)
